The target of test [1] is T1, MCL-1/FITC-NOXA-B interaction (Homo sapiens, UniProt Q07820).
T1 construct: Recombinant MCL-1_172–327 was expressed and purified as published previously; made in house
In words: Fluorescence anisotropy competition, MCL-1/FITC-NOXA-B. In kind it is biochemical. To be noted: [MCL-1] 75 nM, tracer FITC-NOXA-B 25 nM, Tris buffer pH 7.4, triplicate; printed as ≫; read-out: IC50 against MCL-1.

In test [2] the target is T2, BCL-XL (Homo sapiens, UniProt Q07817, DEL27-82).
T2 construct: made in house
In words: Photolabelling of BCL-xL with Ac-RTA 4, ESI-MS. To be noted: pH 7.4.

Test [3] concerns the target T3, MCL-1 (Homo sapiens, UniProt Q07820).
T3 construct: Recombinant MCL-1_172–327 was expressed and purified as published previously; made in house
In words: Photolabelling of recombinant MCL-1, ESI-MS.

The target of test [4] is T3, MCL-1. In words: Pull-down of biotinylated MCL-1 with avidin-agarose beads. As to conditions: 20, 10 µM biotin-RTA 3, or 100 µM with excess label removed. The protocol: Pull-down of biotinylated MCL-1
The crude labelling mixture was incubated with avadin-agarose beads (50 µL) at r.t. for 2 hours with gentle agitation (input lanes 1-4 and their respective pull-down lanes 6-9). Note that for input lane 5/pull-down lane 10, excess biotin-RTA 3 was removed from the crude labelling mixture using a protein concentrator (10 kDa MWCO) prior to incubation with avidin-agarose beads. Following removal of the supernatant, the beads were washed twice with PBS (100 µL), then boiled at 90 °C for 10 mins in sample loading buffer to elute bound proteins. Samples were separated by SDS-PAGE: the gel (15% acrylamide) was run at a constant voltage of 180 V for 45 min, then the gel was stained with Coomassie Brilliant Blue (CBB) and the image obtained on a Molecular Imager ChemiDoc XRS.
Supplementary Figure 19: Isolation of biotinylated MCL-1 from crude labelling mixture through pull-down with avadin-agarose beads (CBB stained gel). Conditions: 5 µM MCL-1, 0-100 µM biotin-RTA 3, 1 µM Ru(II)(bpy)3-NOXA-B, 10 µM APS, 1 min irradiation, 50 mM […]
3 was used (lanes 7 and 8, respectively), in addition to when 100 µM biotin-RTA 3 was used and the excess label 3 was removed using a protein concentrator (lane 10). 50 µL avidin-agarose beads was used in pull-down experiments.

In test [5] the target is T3, MCL-1. In words: Competition of Ru(II)(bpy)3-NOXA-B 1-mediated MCL-1 photolabelling, in-gel fluorescence. In kind it is biochemical. As to conditions: 0-100 µM competitor; 5 µM MCL-1, 5 µM TAMRA-RTA 2, 1 µM 1, 10 µM APS, 1 min hν.

From PMC7610391, “Photocatalytic proximity labelling of MCL-1 by a BH3 ligand” (Communications chemistry, 2019) come the findings set out here.

Entries after “also recorded” stand apart in the source; their conditions may differ.

The term IC50 denotes the concentration that gives 50% inhibition.

T3 sequence (Q07820 172-327): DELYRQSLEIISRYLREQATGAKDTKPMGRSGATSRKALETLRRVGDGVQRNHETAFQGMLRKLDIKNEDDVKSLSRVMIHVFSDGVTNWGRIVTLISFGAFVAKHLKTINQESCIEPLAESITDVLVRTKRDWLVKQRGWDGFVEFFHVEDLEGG
T2 sequence (Q07817 with tags, fused parts or gaps DEL27-82, species assumed): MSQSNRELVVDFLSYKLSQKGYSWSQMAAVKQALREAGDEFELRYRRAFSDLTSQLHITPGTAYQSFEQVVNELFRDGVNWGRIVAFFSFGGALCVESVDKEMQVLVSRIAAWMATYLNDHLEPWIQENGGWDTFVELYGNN
T1 sequence (Q07820 172-327): as the sequence (Q07820 172-327) above

On to “6b: variant Ac-BID sequence with key hot-spot residues exchanged (L90A and D95R) (EDIIRNIARHAAQVGRSXDRSIW; N-terminal acetyl; C-terminal amide; X18 = norleucine (Nle))”, for which, in test [1], the IC50 was above 50 µM.
Take `[Ru+2].c1ccc(-c2ccccn2)nc1.c1ccc(-c2ccccn2)nc1.c1ccc(-c2ccccn2)nc1` [Ru(II)(bpy)3]: in test [2], the “effect of photocatalyst concentration on BCL-xL labelling” value is “increased at higher concentrations of Ru(II)(bpy)3” and the “labelling of BCL-xL with Ac-RTA 4” value is “small amounts of BCL-xL could be labelled”. Moreover, in test [3] (20 mol% Ru(II)(bpy)3, 50 μM Ac-RTA 4, 10 μM APS, 1 min irradiation, pH 7.4), the “photolabelling efficiency of MCL-1 versus targeted catalyst 1” value is “labelling was less efficient”.
Turning to `CN(C)c1ccc(NC(=O)CCCCCNC(=O)CCCCC2SCC3NC(=O)NC32)cc1` (stereo not drawn) [compound 3], in test [4], the “affinity purification of biotinylated MCL-1” value is “Biotinylated MCL-1 was pulled-down; also recorded: could be affinity-purified with avidin-agarose beads”. For the same compound, the “background labelling with biotin-RTA 3 in the absence of 1” value in test [3] (0 µM 1, 5 μM MCL-1, 5 µM biotin-RTA 3, 10 µM APS, 1 min hν) was “absence of background labelling”. Also, the “number of labels incorporated on MCL-1” value in test [3] (Ru(II)(bpy)3-NOXA-B 1-mediated, intact protein ESI-MS) is “single biotin labelling of MCL-1”. The “oxidation at irradiation times greater than 1 min” value in test [3] (biotin-RTA 3 5 µM, 1 µM 1, 10 µM APS, 15 mins irradiation shown) was “higher conversion to oxidised protein species”.
On to `CC[C@H](C)[C@H](NC(=O)[C@H](CCCNC(=N)N)NC(=O)[C@H](CCCNC(=N)N)NC(=O)[C@H](CC(C)C)NC(=O)[C@H](CCC(N)=O)NC(=O)[C@H](C)NC(=O)[C@H](C)NC(C)=O)C(=O)NCC(=O)N[C@@H](CC(=O)O)C(=O)N[C@@H](CCCCN)C(=O)N[C@H](C(=O)N[C@@H](CC(N)=O)C(=O)N[C@@H](CC(C)C)C(=O)N[C@@H](CCCNC(=N)N)C(=O)N[C@@H](CCC(N)=O)C(=O)N[C@@H](CCCCN)C(=O)N[C@@H](CC(C)C)C(=O)N[C@@H](CC(C)C)C(=O)N[C@@H](CC(N)=O)C(N)=O)C(C)C` [compound 5], for which the “inhibition of MCL-1 labelling by Ac-NOXA-B” value in test [5] is “did not completely abrogate labelling”.
